The source of these data is patent US20230087118A1, “IMIDAZO[1,2-a][sequence] DERIVATIVES AND THEIR USE IN THE TREATMENT OF DISEASE” (priority 2019, published 2023).

Structures are written as SMILES. Counter-ions that a name gives are not always drawn.

One assay has as its target T1, IRAK4 (Homo sapiens, UniProt Q9NWZ3).
T1 sequence (Q9NWZ3 1-460): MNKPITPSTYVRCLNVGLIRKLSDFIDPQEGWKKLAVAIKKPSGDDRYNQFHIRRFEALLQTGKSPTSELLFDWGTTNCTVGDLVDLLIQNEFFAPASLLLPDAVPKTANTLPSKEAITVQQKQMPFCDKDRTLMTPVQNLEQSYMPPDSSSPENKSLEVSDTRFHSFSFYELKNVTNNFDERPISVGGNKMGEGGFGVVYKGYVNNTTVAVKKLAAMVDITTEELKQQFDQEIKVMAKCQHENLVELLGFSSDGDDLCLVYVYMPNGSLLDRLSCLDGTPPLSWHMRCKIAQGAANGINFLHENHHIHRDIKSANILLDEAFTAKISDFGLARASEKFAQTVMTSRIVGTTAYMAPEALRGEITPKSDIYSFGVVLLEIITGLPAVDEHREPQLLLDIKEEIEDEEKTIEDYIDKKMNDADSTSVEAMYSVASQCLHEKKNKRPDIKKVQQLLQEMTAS
Briefly: biochemical.
Conditions: not given
For `Cn1ccc(NC(=O)c2cn3cc([C@]45CC[C@](C)(C4)OC5)nc3cc2OC2CCCC2)n1` (single isomer, unassigned) [Example 633], half-maximal inhibition (IC50) required 0.0016 µM. That is a single-digit nanomolar value. Same read-out and setting: next, `CC(C)Oc1nc2nc(C34COC(C)(C3)C4)cn2cc1C(=O)Nc1cccc(-c2cnco2)n1` [Example 368, 7-Isopropoxy-2-(1-methyl-2-oxabicyclo[2.1.1]hexan-4-yl)-N-(6-(oxazol-5-yl)pyridin-2-yl)imidazo[1,2-a]pyrimidine-6-carboxamide]: 0.0002 µM; `COc1cc2nc(C3CC34CCCCO4)cn2cc1C(=O)Nc1ccccn1` (stereo not shown) [Example 6]: 0.151 µM. Still for that read-out and setting: then `CC(C)Oc1cc2nc([C@@]34CC[C@@](C)(C3)OC4)cn2cc1C(=O)Nc1cccn(C(F)F)c1=O` (single isomer, unassigned) [Example 624], with 0.0002 µM; and `CC(C)Oc1nc(C(=O)Nc2ccnc3ccnn23)cn2cc(C34COC(C)(C3)C4)nc12` [Example 400, 8-Isopropoxy-2-(1-methyl-2-oxabicyclo[2.1.1]hexan-4-yl)-N-(pyrazolo[1,5-a]pyrimidin-7-yl)imidazo[1,2-a]pyrazine-6-carboxamide], with 0.0136 µM. Still for that read-out and setting: then `CC12CCC(c3cn4cc(C(=O)Nc5ccn(CC(F)F)n5)c(OC5CCC5)cc4n3)(CO1)C2` (stereo not shown) [Example 543, 7-Cyclobutoxy-N-(1-(2,2-difluoroethyl)-1H-pyrazol-3-yl)-2-(1-methyl-2-oxabicyclo[2.2.1]heptan-4-yl)imidazo[1,2-a]pyridine-6-carboxamide], with 0.0044 µM. In the case of `CC12CC(c3cn4cc(C(=O)Nc5ccn(CC#N)n5)c(OC5CCC5)cc4n3)(CO1)C2` [Example 527, N-(1-(cyanomethyl)-1H-pyrazol-3-yl)-7-cyclobutoxy-2-(1-methyl-2-oxabicyclo[2.1.1]hexan-4-yl)imidazo[1,2-a]pyridine-6-carboxamide], the IC50 is 0.0044 µM. The same measure, in the same setting: next, `CC(C)Oc1cc2nc([C@]34CC[C@](C)(C3)OC4)cn2cc1C(=O)Nc1cccn(C(F)F)c1=O` (single isomer, unassigned) [Example 625]: 0.0003 µM; `Cc1cnc2c(NC(=O)c3cn4cc(C56COC(CF)(C5)C6)nc4nc3OC(C)C)cnn2c1` [Example 434]: 0.0005 µM; `COc1cccc(NC(=O)c2cn3cc(C45CCC(C)(C4)OC5)nc3cc2OC2CCC2)n1` (stereo not shown) [Example 541, 7-Cyclobutoxy-N-(6-methoxypyridin-2-yl)-2-(1-methyl-2-oxabicyclo[2.2.1]heptan-4-yl)imidazo[1,2-a]pyridine-6-carboxamide]: 0.0002 µM. Still for that read-out and setting: next, `Cn1ccc(NC(=O)c2cn3cc([C@]45CC[C@](C)(C4)OC5)nc3nc2OC2CCCC2)n1` (single isomer, unassigned) [Example 636]: 0.0037 µM; `CC12CCC(c3cn4cc(C(=O)Nc5cccn(C(F)F)c5=O)c(OC5CC5)cc4n3)(CO1)C2` (stereo not shown) [Example 553]: 0.0015 µM. Same read-out and setting: next, `CCOc1nc(C(=O)Nc2ccc(F)cc2OC)cn2cc(C34COC(C)(C3)C4)nc12` [Example 491, 8-Ethoxy-N-(4-fluoro-2-methoxyphenyl)-2-(1-methyl-2-oxabicyclo[2.1.1]hexan-4-yl)imidazo[1,2-a]pyrazine-6-carboxamide]: 0.0023 µM.

Staying with this assay, now noted: IRAK4 Biochemical Assay (1 mM ATP, 2 h) IC50 (μM), 1 mM ATP, 2 h, 100 pM IRAK4.
For the compound `CCOc1cc2nc(C3CN(CC(F)F)C3)cn2cc1C(=O)Nc1cccc(C(F)F)n1` [Example 90], inhibition was half-maximal at 0.0015 µM (IC50). Same read-out and setting: next, `COc1nc(C(=O)Nc2cccc3c2OCCC3)cn2cc(C3CCOCC3)nc12` [Example 205, N-chroman-8-yl-8-methoxy-2-tetrahydropyran-4-yl-imidazo[1,2-a]pyrazine-6-carboxamide trifluoroacetate]: 0.0341 µM; `CC(C)Oc1nc2nc(C34COC(C)(C3)C4)cn2cc1C(=O)Nc1csc2nccnc12` [Example 380, 7-Isopropoxy-2-(1-methyl-2-oxabicyclo[2.1.1]hexan-4-yl)-N-(thieno[2,3-b]pyrazin-7-yl)imidazo[1,2-a]pyrimidine-6-carboxamide trifluoroacetate]: 0.0002 µM.

In general, IC50 refers to the point on the concentration scale where inhibition reaches its midpoint. Read a low IC50 as greater potency in that assay.
